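1) Cells in 96-well plates. 2) Compound, 48 h, 5 concentrations. 3) Linear interpolation between surrounding doses. 4) Unreached endpoint = highest concentration. TGI is the concentration that stops growth completely.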
Assays:
Assay in all cases: growth of human tumour cells (NCI), 48 h
NCI-H23 lung = test system: NCI-H23 lung
OVCAR-3 ovarian = test system: OVCAR-3 ovarian
UACC-62 melanoma = test system: UACC-62 melanoma
UACC-257 melanoma = test system: UACC-257 melanoma
SR leukemia = test system: SR leukemia
OVCAR-8 ovarian = test system: OVCAR-8 ovarian
MDA-N = test system: MDA-N
HCT-15 colon = test system: HCT-15 colon
MOLT-4 leukemia = test system: MOLT-4 leukemia
RXF 393 renal = test system: RXF 393 renal
SW-620 colon = test system: SW-620 colon

Structure (SMILES) | TGI (NCI-H23 lung) | TGI (OVCAR-3 ovarian) | TGI (UACC-62 melanoma) | TGI (UACC-257 melanoma) | TGI (SR leukemia) | TGI (OVCAR-8 ovarian) | TGI (MDA-N) | TGI (HCT-15 colon) | TGI (MOLT-4 leukemia) | TGI (RXF 393 renal) | TGI (SW-620 colon)
CO/C=C(/C(=O)OC)c1ccccc1[C@H]1C[C@@H]1c1ccccc1 | > 100 µM | 67.3 µM | 37.2 µM | 41.3 µM | 76.5 µM | > 100 µM | 71.9 µM | 86.8 µM | > 100 µM | > 100 µM | 
Cc1nc2cccc(F)c2c(=O)n1-c1nnc(C2CC2)s1 | > 10 µM | > 10 µM | > 10 µM | > 10 µM | > 10 µM | > 10 µM | > 10 µM | > 10 µM | > 10 µM | > 10 µM | > 10 µM
CC(=O)OCC12C(OC(C)=O)C[C@@H](C)C3(CC(c4ccoc4)OC3=O)C1CCC(OC(C)=O)C21CO1 (stereo partly drawn) | > 100 µM | > 100 µM | > 100 µM | > 100 µM |  | > 100 µM | > 100 µM | > 100 µM | > 100 µM | > 100 µM | > 100 µM
N#Cc1nc(-c2ccccn2)c(-c2ccccn2)nc1C#N | 16.7 µM | > 42.9 µM | 5.1 µM | 14.7 µM | > 33.9 µM | 15.3 µM | > 100 µM | > 42 µM | > 30.6 µM | 15.9 µM | > 43.5 µM
CCCCCC(=O)OCC1(CO)C/C(=C/CC(C(C)C)C(C)C)C(=O)O1 (stereo not drawn) | > 75 µM | > 75 µM | > 75 µM | > 75 µM |  | > 75 µM | > 75 µM | > 75 µM |  | > 75 µM | > 75 µM
CCOC(=O)c1sc2[n+](c1C)C(=O)/C(=C/c1ccccc1Cl)S2 | 27.7 µM | 21.1 µM | 19.3 µM | > 70.2 µM | 17 µM | 35 µM | 0.565 µM | 12.9 µM | 15 µM | > 68.1 µM | 46.5 µM
NS(=O)(=O)c1ccc(NS(=O)(=O)c2ccc(NC(=O)N(c3ccccc3)c3ccccc3)cc2)cc1 | > 100 µM | 50.2 µM | > 100 µM | > 100 µM |  | > 100 µM | > 100 µM | > 100 µM | > 100 µM | 80.9 µM | > 100 µM
Cc1cc(S(=O)(=O)Nc2n[nH]c(N)n2)c(S)cc1Cl | > 10 µM | > 10 µM | > 10 µM | > 10 µM |  | > 10 µM | > 10 µM | > 10 µM | > 10 µM | > 10 µM | > 10 µM
CC1CC2OC(=N)C1(C#N)C2(C#N)C#N (stereo not drawn) | 63.7 µM |  | > 100 µM | 41 µM | > 100 µM | > 100 µM | 33 µM | 30.6 µM | > 100 µM | 31.1 µM | > 100 µM
Oc1[nH]c2ccccc2c1N=NC(=S)NCc1ccccn1 | 14.9 µM | 15.3 µM | 2.6 µM | 13.7 µM |  | 26.7 µM | 19.9 µM | 33.2 µM | 4.9 µM |  | 22.3 µM
COc1cc(OC)cc(-c2nc3ccccc3c(=O)[nH]2)c1 | > 100 µM | > 100 µM | > 100 µM | > 100 µM |  | 63.8 µM | > 100 µM | > 100 µM | > 100 µM | > 100 µM | > 100 µM
CC(=O)O[C@H]1CC[C@]2(C=O)[C@H]3CC[C@]4(C)[C@@H](C5=CC(=O)OC5)CC[C@]4(O)[C@@H]3CC[C@]2(O)C1 | 0.373 µM | 0.622 µM | 1.1 µM | 1.63 µM | > 100 µM | 1.01 µM | 0.97 µM | 0.455 µM | 0.0798 µM |  | 4.85 µM
NC(=O)c1nnc2c(F)cccc2c1N | > 100 µM | > 100 µM | > 100 µM | > 100 µM | > 100 µM | > 100 µM | > 100 µM | > 100 µM | > 100 µM |  | > 100 µM
CC(=O)c1nc(C#N)c(N)o1 | > 100 µM | > 100 µM | > 100 µM | > 100 µM |  | > 100 µM | > 100 µM | > 100 µM | > 100 µM | > 100 µM | > 100 µM
COc1nc2ncc([C@@H](O)[C@H](O)CO)nc2c(=O)[nH]1 |  | > 100 µM | > 100 µM | > 100 µM | > 100 µM | > 100 µM | > 100 µM | > 100 µM | > 100 µM | > 100 µM | > 100 µM
O=C1/C(=C/Cc2ccco2)N=C(c2ccccc2)N1c1nc2c(Cl)cc(Cl)cc2s1 |  | 52.6 µM | > 100 µM | > 100 µM | 38.7 µM | > 100 µM | 47.9 µM | > 100 µM | 33.3 µM | 40.6 µM | > 100 µM
CN1CCN(C2CC(=O)c3c(Cl)sc(Cl)c32)CC1 (stereo not drawn) | 30.3 µM | 38.7 µM | 34.1 µM | > 61.5 µM | > 100 µM | > 21.3 µM | 35 µM | > 31.6 µM | > 51.9 µM |  | 22.2 µM
CC1CC/C(=C\c2ccc(F)cc2)C2=C1C(c1ccc(F)cc1)NC(=S)N2 (stereo not drawn) | > 100 µM | > 100 µM | > 100 µM | > 100 µM |  | > 100 µM | > 100 µM | > 100 µM | > 100 µM | > 100 µM | > 100 µM
N#CC(NNC(=O)c1c(Cl)c(Cl)c(Cl)c(Cl)c1-c1nc2ccc(C(=O)c3ccccc3)cc2[nH]1)c1cccc(Oc2ccccc2)c1 (stereo not drawn) | 90.9 µM | > 100 µM |  | > 100 µM | 54.4 µM | > 100 µM | 49.6 µM | 53.3 µM | > 100 µM | 55.5 µM | > 100 µM
COc1ccc(C2=C(N)c3cc(OC)ccc3C2=O)cc1 | > 100 µM | > 100 µM | > 100 µM | > 100 µM | > 100 µM | > 100 µM | > 100 µM | > 100 µM | > 100 µM |  | > 100 µM
C/C(=N\Nc1nc2ccccc2n1C)c1ccncn1 | > 100 µM |  |  | > 100 µM | > 100 µM | > 40.9 µM | > 100 µM | > 88.1 µM | > 100 µM |  | > 47.6 µM
COC1OC(=O)C(OC)C(OC)C1OC (stereo not drawn) |  | > 100 µM | > 100 µM | > 100 µM | > 100 µM | > 100 µM | > 100 µM | > 100 µM | > 100 µM |  | > 100 µM

Source: PubChem BioAssay (NCI)
